The values below come from patent US20090234018A1, “Non-Standard Amino Acid Conjugates of Amphetamine and Processes for Making and Using the Same” (priority 2006, published 2009).

Like-named read-outs stand apart in the source and are kept apart here.

Data set [1] is described as follows: Intranasal PK study of d-amphetamine, hArg-Amp, Orn-Amp (Example 10). The note with it: rat; for % Tmax: relative to d-amp.
Data set [2] in a line: Average of 4 oral PK studies of Lys-Amp and hArg-Amp (Example 7, Table 3). The note with it: average of 4 oral studies, n=20; relative to Lys-Amp.
Data set [3] can be described thus: Oral gavage PK study of Lys-Amp and hArg-Amp, plasma d-amphetamine by ELISA (Example 7). The note with it: rat, relative to Lys-Amp. For orientation: In an ELISA, binding on a coated surface is turned into a signal by an enzyme label.
A short description of data set [4]: PK of d-amphetamine after parenteral (intranasal, intravenous) administration of hArg-Amp (Example 1).
Data set [5] is described as follows: Intravenous PK study of d-amphetamine, hArg-Amp, Orn-Amp (Example 11). The note with it: rat, relative to d-amp.
Data set [6] is described as follows: Oral PK study of Lys-Amp, hArg-Amp, Orn-Amp and Cit-Amp (Example 9). The note with it: rat; for % Tmax: relative to Lys-Amp.
The conditions of data set [7]: rat, oral; relative to hArg-Amp.
[8] abbreviates: plasma d-amphetamine, given in minutes.

Regarding `C[C@H](N)Cc1ccccc1` [d-amp, d-amphetamine], the Tmax in data set [1] (setting [8]) came out at 15 m. Also, the “% Tmax” value in data set [1] turned out to be 100%.

With `C[C@@H](Cc1ccccc1)NC(=O)[C@@H](N)CCCCN=C(N)N.Cl.Cl` [hArg-Amp, l-homoarginine-d-amphetamine dihydrochloride], the “% Tmax” value is on record as 400% in data set [2]; 133% in data set [3]; 1600% in data set [1]; 100% in data set [5]; 200% in data set [6]; 100% in data set [7]. For the same molecule, in data set [4], the release of amphetamine was < 50%.

Turning to “1-citrulline-d-amphetamine hydrochloride [Cit-Amp]”, in data set [6], the “Tmax compared to Lys-Amp” value is on record as “significantly shifted the Tmax” and the “% Tmax” value came out at 25%. Further, the Tmax in data set [6] (setting [8]) is given as 15 m.

A word on the Cmax: it is the peak of the concentration-time curve. Consider “l-lysine-d-amphetamine [Lys-Amp, reference compound]”, for which the “% Tmax” value in data set [2], in data set [3] and in data set [6] was 100% throughout. This molecule also gave a Cmax in data set [6] (plasma d-amphetamine) of 59 ng/mL.
